Columns and labels:
[1] = system: NF-κB; experiment: NF-κB inhibition in NIH-3T3-KBF-Luc cells stimulated with TNFα; type: cell-based; settings: TNFα 30 ng/ml, 6 h
Experimental: To further study the target selectivity of the compounds described in the present invention the effect of the natural triterpenoids (OA; BA, UA, and MA), compounds II to XV of Formula (I) disclosed in present invention, and of comparative compound CDDO-Me on NF-κB inhibition, STAT-3 inhibition, Nrf2 activation and TGR5 activation was analyzed. For this study cell lines NIH-3T3-KBF-Luc, HeLa-STAT3-Luc, HaCaT-ARE-Luc and CHO-TGR5-CRE-luc were used respectively. The NIH3T3-KBF-Luc cell line stably transfected with the plasmid KBF-Luc plasmid, which contains three copies of NF-κB binding site (from major histocompatibility complex promoter), fused to a minimal simian virus 40 promoter driving the luciferase gene. Cells (1×10^4/well) were seeded in 96-well plates, treated with increasing concentrations of the compounds II to XV for 15 min and then stimulated with 30 ng/ml TNFα. After 6 h the luciferase activity in the cell lysates was measured as indicated above.

[2] = system: Nrf2; experiment: Nrf2 activation/inhibition in HaCaT-ARE-Luc cells; type: cell-based
[3] = system: Nrf2; experiment: Nrf2 activation/inhibition in HaCaT-ARE-Luc cells; type: cell-based; settings: 6 h
Experimental: (§1) The HeLa-STAT3-luc cells stably transfected with the plasmid 4×M67 pTATA TK-Luc. Cells (20×10^3 cells/ml) were seeded in 96-well plates, treated with increasing concentrations of the compounds II to XIV, and of comparative compound CDDO-Me, for 15 min and then stimulated with IFN-γ 25 IU/ml. After 6 h the luciferase activity in the cell lysates was measured as indicated above. […] The HaCaT-ARE-Luc cell line contains the Nqo1 Antioxidant Response Element (ARE)-Luc reporter plasmid. ARE is activated by all members of the CNC family of factors (Nrf1, Nrf2, Nrf3 and p45 NF-E2). The cells were cultivated in 96-well plates at the concentration of 25×10^3 cells/well in a CO2 incubator at 37° C. For induction of Nrf2 activation the cells were treated with increasing concentrations of the compounds II to XV, and of comparative compound CDDO-Me, for 6 h. As a positive control the cells were treated with 0.02 mM of the antioxidant Tert-butyl-hydroquinone (TBHQ). Luciferase activity in the cell lysates was measured as indicated above and the EC50 calculated (Table III). The CHO-TGR5-CRE-Luc cells stably transfected with the pTGR5 and CRE-Luc. The CRE-responsive luciferase construct encodes the firefly luciferase reporter gene under the control of a minimal (m)CMV promoter and tandem repeats of the CRE transcriptional response element (TRE) and is useful to monitor cAMP signaling pathways activated by TGR5 agonists. Cells (1×10^4/well) were seeded in 96-well plates, treated with increasing concentrations of the compounds II to XV and CDDO-Me, for 6 h. As a positive control the cells were treated with 10 μM of LCA (lithocholic acid). Luciferase activity in the cell lysates was measured as indicated above and the EC50 calculated (Table III).

[4] = system: HIF-1α; experiment: HIF-1α transactivation assay in NIH-3T3-EPO-Luc fibroblast cells; type: cell-based; settings: for Efficacy HIF-1α (IRA coefficient) / EC50: 6 h stimulation; for Efficacy HIF-1α (IRA coefficient): relative to 150 μM DFX; for EC50: Fibroblast, read-out: Potency EC50 HIF-1α
Experimental: To investigate the biological activities of the different compounds, HIF-1α transactivation assays were performed either in NIH-3T3-EPO-Luc cells (Table II) or in HaCaT-EPO-luc cells (FIG. 2). The NIH3T3-EPO-luc and HaCaT-EPO-luc cells have been stably transfected with the plasmid Epo-Luc plasmid. The EPO-Hypoxia Response Element (HRE)-luciferase reporter plasmid contains three copies of the HRE consensus sequence from the promoter of the erythropoietin gene fused to the luciferase gene. NIH3T3-EPO-luc cells were maintained at 37° C. in a humidified atmosphere containing 5% CO2 in DMEM supplemented with 10% fetal calf serum (FBS), and 1% (v/v) penicillin/streptomycin. DFX was purchased from Sigma-Aldrich (USA). Cells (1×10^4/well in 96 well plates) were seeded the day before the assay. […] After six hours of stimulation the cells were lysed in 25 mM Tris-phosphate pH 7.8, 8 mM MgCl2, 1 mM DTT, 1% Triton X-100, and 7% glycerol during 15 min at RT in a horizontal shaker. Luciferase activity is measured using a microplate luminometer (Berthold) following the instructions of the luciferase assay kit (Promega, Madison, Wis., USA).

[5] = system: TGR5; experiment: TGR5 activation in CHO-TGR5-CRE-Luc cells; type: cell-based; settings: 6 h
Experimental: The CHO-TGR5-CRE-Luc cells stably transfected with the pTGR5 and CRE-Luc. […] As a positive control the cells were treated with 10 μM of LCA (lithocholic acid). Luciferase activity in the cell lysates was measured as indicated above and the EC50 calculated (Table III).

[6] = system: STAT3; experiment: STAT3 inhibition in HeLa-STAT3-Luc cells stimulated with IFN-γ; type: cell-based; settings: IFN-γ 25 IU/ml, 6 h
Experimental: as §1

[7] = system: STHdhQ7/Q7 and STHdhQ111/Q111 striatal cells; experiment: 3-NP-induced cytotoxicity in striatal Q7 and Q111 cells (YOYO-1); type: cell-based, mouse; settings: 6 h pre-treatment, 3-NP 10 mM 24 h; compound VII increasing concentrations, DFX 50 μM
Experimental: FIG. 8. Compound VII abrogates 3-NP toxicity in Q7 and […] striatal cells. Q7 and Q111 Striatal cells were pretreated with increasing concentrations of compound VII for 6 h and then exposed to 3-NP (10 mM) for an additional 24 h, after which YOYO-1 staining was used to investigate cell death. Cell death was determined using the IncuCyte HD software and the treatment with 3-NP alone in Q111 cells was considered as 100% of cell death.
To investigate whether HIF activation in striatal Q7 and Q111 cells is sufficient to protect striatal neurons (provide neuroprotection), the effect of compound VII on 3-NP induced death was examined. […]
STHdh^Q7/Q7 and STHdh^Q111/Q111 cells (10^4 cells/well in 96-well plates) were incubated with YOYO-1 (Life Technologies) and then treated with 3-NP (10 mM) and or DFX (50 μM) as a positive control for PHDs inhibition. […] The uptake of YOYO-1 by damaged cells correlates with the increase in YOYO-1 fluorescence. Treated cells are placed in an Incucyte FLR imaging system, and the YOYO-1 fluorescence is measured after 24 h of 3-NP treatment. Following the incubation period object counting analysis was performed using the Incucyte FLR software to calculate the total number of YOYO-1 fluorescence positive cells and total DNA containing objects (end point). […]

Question: `CC1(C)CC[C@]2(C(=O)NO)CC[C@]3(C)C(=CC[C@@H]4[C@@]5(C)C[C@@H](O)[C@H](O)C(C)(C)[C@@H]5CC[C@]43C)[C@@H]2C1` [Compound XIV, (2α,3β) 2,3-Dihydroxy-N-hydroxy-olean-12-en-28-amide] was tested. Which IC50 [1] did it give?
Answer: > 50 µM

Question: What about the IC50 [2] of the same compound?
Answer: > 50 µM

Question: What about the EC50 [3] of the same compound?
Answer: > 50 µM

Question: What about the “Efficacy HIF-1α (IRA coefficient)” value [4] of the same compound?
Answer: 0.10

Question: And the EC50 [4]?
Answer: 7.1 µM

Question: And the EC50 [5]?
Answer: > 50 µM

Question: And the IC50 [6]?
Answer: > 50 µM

Question: `CC1(C)CC[C@]2(C(=O)NO)CC[C@]3(C)C(=CC[C@@H]4[C@@]5(C)C=C(O)C(=O)C(C)(C)[C@@H]5CC[C@]43C)[C@@H]2C1` [Compound XV, 2-Hydroxy-3-oxo-oleana-1,12-dien-N-hydroxy-28-amide] was tested. Which IC50 [1] did it give?
Answer: > 50 µM

Question: And the IC50 [2]?
Answer: > 50 µM

Question: And the EC50 [3]?
Answer: > 50 µM

Question: And the “Efficacy HIF-1α (IRA coefficient)” value [4]?
Answer: 0.06

Question: And the EC50 [4]?
Answer: 11.2 µM

Question: And the EC50 [5]?
Answer: > 50 µM

Question: What about the IC50 [6] of the same compound?
Answer: > 50 µM

Question: Which “neuroprotection to 3-NP-induced cytotoxicity (cell death)” value [7] does the source give for `CC(=O)N(O)CCCCCNC(=O)CCC(=O)N(O)CCCCCNC(=O)CCC(=O)N(O)CCCCCN` [DFX, desferrioxamine, reference compound] here?
Answer: also protected the cells from the cytotoxic activity of 3-NP

Question: What does the source list for `CC1(C)CC[C@]2(C(=O)O)CC[C@]3(C)C(=CC[C@@H]4[C@@]5(C)C[C@@H](O)[C@H](O)C(C)(C)[C@@H]5CC[C@]43C)[C@@H]2C1` [Maslinic acid, reference compound]?
Answer: IC50 [1]: > 50 µM; IC50 [2]: > 50 µM; EC50 [3]: > 50 µM; activation of the EPO promoter as a surrogate marker of HIF-1α pathway activation (in words) [4]: None of the natural triterpenoids; EC50 [4]: > 50 µM; EC50 [5]: 10.2 µM; IC50 [6]: > 50 µM

Question: Which results are given for `CC1(C)CC[C@]2(C(=O)O)CC[C@]3(C)C(=CC[C@@H]4[C@@]5(C)CC[C@H](O)C(C)(C)[C@@H]5CC[C@]43C)[C@@H]2C1` [Oleanolic acid, reference compound]?
Answer: IC50 [1]: > 50 µM; IC50 [2]: > 50 µM; EC50 [3]: > 50 µM; activation of the EPO promoter as a surrogate marker of HIF-1α pathway activation (in words) [4]: None of the natural triterpenoids; EC50 [4]: > 50 µM; EC50 [5]: […]; IC50 [6]: > 50 µM

Reference: patent publication US10766855B2, “Hydroxamate triterpenoid derivatives” (VIVACELL BIOTECHNOLOGY ESPANA S.L., priority 2016, dated 2020)
